Like-named read-outs stand apart in the source and are kept apart here.
Assays:
Assay in all cases: biochemical
[1] = biological target: E. coli DNA gyrase (Escherichia coli, UniProt P0AES4+P0AES6); conditions: for IC50: IC50 DNA gyrase; for inhibition at 50 µM: read-out: % inhibition DNA gyrase
[2] = biological target: E. coli Topoisomerase IV (Escherichia coli, UniProt P0AFI2+P20083); conditions: for IC50: IC50 Topo IV; for inhibition at 50 µM: read-out: % inhibition Topo IV
[3] = biological target: S. aureus Topoisomerase IV (Staphylococcus aureus, UniProt P0C1S7+P0C1U9); conditions: for inhibition at 50 µM: read-out: % inhibition Topo IV
[4] = biological target: S. aureus DNA gyrase (Staphylococcus aureus, UniProt P0A0K8+P20831); conditions: for IC50: IC50 DNA gyrase; for inhibition at 50 µM: read-out: % inhibition DNA gyrase
[5] = S. aureus, compound conc. 50 μM, percent of inhibition versus positive control, n/a = not active

Chain of E. coli Topoisomerase IV (P0AFI2 whole entry): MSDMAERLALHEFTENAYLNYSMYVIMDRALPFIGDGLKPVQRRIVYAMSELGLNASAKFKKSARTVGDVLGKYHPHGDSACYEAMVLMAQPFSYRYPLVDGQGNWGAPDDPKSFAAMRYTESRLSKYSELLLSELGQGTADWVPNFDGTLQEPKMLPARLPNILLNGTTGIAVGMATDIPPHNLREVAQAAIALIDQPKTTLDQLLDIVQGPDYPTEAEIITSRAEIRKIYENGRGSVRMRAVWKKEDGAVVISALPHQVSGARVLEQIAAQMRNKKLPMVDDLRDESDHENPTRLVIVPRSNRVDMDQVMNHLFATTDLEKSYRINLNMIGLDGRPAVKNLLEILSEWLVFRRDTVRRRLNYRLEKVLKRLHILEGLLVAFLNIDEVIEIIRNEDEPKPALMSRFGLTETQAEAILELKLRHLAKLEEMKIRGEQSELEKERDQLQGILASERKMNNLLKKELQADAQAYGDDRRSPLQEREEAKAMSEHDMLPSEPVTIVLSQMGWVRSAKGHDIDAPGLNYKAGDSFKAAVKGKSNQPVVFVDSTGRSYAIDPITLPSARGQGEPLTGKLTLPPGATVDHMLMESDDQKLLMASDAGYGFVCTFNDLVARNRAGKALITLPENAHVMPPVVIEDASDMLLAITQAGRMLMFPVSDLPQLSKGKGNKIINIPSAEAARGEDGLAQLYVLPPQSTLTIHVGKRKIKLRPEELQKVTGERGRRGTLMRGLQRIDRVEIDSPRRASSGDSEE
Chain of E. coli Topoisomerase IV (P20083 whole entry): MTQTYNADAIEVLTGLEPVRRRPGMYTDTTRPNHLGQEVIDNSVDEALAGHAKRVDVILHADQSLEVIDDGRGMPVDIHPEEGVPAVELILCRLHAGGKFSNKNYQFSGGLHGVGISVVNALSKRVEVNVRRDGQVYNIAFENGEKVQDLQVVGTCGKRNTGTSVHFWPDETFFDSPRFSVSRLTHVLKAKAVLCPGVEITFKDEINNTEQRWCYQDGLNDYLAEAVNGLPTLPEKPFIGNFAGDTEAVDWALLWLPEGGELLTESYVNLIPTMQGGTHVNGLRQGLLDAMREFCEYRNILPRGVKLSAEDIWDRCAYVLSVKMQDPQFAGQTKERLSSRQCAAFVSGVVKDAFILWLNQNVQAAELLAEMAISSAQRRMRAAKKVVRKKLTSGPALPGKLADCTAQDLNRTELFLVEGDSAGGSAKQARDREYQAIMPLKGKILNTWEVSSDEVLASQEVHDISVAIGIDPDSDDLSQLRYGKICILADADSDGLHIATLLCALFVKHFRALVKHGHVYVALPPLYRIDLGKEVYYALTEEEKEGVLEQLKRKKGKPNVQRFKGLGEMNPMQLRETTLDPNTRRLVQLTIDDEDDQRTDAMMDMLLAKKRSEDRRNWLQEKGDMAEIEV
Chain of S. aureus Topoisomerase IV (P0C1U9 whole entry): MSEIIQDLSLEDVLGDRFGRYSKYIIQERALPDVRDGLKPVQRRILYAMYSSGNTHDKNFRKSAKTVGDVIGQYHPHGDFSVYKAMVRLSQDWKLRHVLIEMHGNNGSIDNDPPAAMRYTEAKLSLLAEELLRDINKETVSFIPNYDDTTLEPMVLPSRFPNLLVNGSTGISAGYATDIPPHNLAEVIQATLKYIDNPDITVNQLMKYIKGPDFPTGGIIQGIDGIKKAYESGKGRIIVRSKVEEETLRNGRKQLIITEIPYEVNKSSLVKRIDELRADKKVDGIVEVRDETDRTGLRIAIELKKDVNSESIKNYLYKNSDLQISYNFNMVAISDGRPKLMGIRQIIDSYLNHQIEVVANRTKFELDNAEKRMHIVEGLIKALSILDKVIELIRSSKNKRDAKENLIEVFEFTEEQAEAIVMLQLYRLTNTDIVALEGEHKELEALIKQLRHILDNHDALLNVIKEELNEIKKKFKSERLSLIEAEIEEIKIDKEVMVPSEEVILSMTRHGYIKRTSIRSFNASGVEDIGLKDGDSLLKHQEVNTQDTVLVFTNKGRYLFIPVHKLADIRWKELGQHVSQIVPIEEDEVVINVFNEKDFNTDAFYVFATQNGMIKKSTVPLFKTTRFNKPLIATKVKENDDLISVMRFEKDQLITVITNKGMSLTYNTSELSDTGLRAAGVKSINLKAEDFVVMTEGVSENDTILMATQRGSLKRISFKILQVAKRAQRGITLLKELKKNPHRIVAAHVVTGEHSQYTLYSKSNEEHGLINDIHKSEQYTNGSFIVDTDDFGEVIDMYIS
Chain of S. aureus Topoisomerase IV (P0C1S7 whole entry): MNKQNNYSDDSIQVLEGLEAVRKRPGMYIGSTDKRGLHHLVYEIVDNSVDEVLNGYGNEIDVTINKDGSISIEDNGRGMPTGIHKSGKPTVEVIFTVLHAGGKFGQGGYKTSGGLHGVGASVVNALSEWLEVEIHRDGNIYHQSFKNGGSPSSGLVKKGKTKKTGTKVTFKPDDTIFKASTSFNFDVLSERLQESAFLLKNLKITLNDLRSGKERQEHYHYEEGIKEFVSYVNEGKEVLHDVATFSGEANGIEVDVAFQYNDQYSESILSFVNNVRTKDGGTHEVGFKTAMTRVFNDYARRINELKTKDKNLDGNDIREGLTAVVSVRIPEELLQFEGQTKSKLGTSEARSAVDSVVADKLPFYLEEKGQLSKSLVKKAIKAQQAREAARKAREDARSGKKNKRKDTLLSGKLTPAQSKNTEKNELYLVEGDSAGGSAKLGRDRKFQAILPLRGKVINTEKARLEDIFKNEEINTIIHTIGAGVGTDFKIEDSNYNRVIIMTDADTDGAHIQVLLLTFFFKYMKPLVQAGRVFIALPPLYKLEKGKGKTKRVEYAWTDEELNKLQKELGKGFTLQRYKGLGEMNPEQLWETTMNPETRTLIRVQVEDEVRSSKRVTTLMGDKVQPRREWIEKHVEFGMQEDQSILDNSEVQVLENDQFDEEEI
Chain of E. coli DNA gyrase (P0AES4 whole entry, one chain of several): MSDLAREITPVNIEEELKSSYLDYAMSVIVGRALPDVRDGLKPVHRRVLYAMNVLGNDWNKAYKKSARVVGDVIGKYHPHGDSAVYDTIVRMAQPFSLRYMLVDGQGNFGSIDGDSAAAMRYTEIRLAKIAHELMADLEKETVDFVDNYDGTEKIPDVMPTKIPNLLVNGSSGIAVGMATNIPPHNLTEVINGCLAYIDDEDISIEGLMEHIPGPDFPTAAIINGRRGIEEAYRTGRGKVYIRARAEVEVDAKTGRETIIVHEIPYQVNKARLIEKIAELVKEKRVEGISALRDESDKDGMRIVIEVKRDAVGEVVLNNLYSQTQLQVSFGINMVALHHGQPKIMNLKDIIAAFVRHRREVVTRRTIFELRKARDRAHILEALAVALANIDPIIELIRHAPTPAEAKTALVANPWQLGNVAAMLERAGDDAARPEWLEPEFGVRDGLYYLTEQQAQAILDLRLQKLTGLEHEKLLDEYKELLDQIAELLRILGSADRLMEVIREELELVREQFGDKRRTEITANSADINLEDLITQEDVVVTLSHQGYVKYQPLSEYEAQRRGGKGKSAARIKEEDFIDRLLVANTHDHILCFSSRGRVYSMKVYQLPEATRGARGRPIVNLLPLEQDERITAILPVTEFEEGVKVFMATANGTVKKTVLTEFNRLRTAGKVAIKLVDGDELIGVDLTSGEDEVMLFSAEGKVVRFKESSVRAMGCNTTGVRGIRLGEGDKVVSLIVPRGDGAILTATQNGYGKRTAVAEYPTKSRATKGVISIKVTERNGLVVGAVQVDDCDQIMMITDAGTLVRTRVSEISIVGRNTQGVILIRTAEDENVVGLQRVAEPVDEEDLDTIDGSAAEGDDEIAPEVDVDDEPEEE

Compound | IC50 [1] | IC50 [2] | IC50 ([3]; IC50 Topo IV) | IC50 [4] | inhibition at 50 µM [1] | % inhibition Topo IV [2] | inhibition at 50 µM [3, 5] | inhibition at 50 µM [4] | % inhibition DNA gyrase [1] | % inhibition Topo IV [3, 5] | % inhibition DNA gyrase [4] | inhibition at 50 µM [2] | IC50 ([3]; S. aureus, Table 3, eight half-log concentrations ranging from 0.1 to 300 μM, read-out: IC50 Topo IV) | inhibition at 50 µM [3]
O=c1cc(NCC(O)C2CCN(C[C@@H]3Cn4c(=O)ccc5ncc(=O)n3c54)CC2)c2cc(F)ccc2o1 (mixture of isomers) [Compound 343, (2R)-2-[(4-{2-[(6-fluoro-2-oxo-2H-1-benzopyran-4-yl)amino]-1-hydroxyethyl}piperidin-1-yl)methyl]-1,2-dihydro-3H,8H-2a,5,8a-triazaacenaphthylene-3,8-dione] | 910 nM | 1270 nM | 8730 nM | 1980 nM | – | – | – | – | – | – | – | – | – | –
O=c1oc2ccccc2c2[nH]c(CNCC3CCN(c4nccc5ccc(F)cc45)C3)cc12 (single isomer, unassigned) [Compound 180, 2-[({[1-(7-fluoroisoquinolin-1-yl)pyrrolidin-3-yl]methyl}amino)methyl][1]benzopyrano[4,3-b]pyrrol-4(1H)-one] | 480 nM | 3780 nM | 110 nM | 1700 nM | 58% | 57% | 50% | 90% | – | – | – | – | – | –
O=c1oc2ccccc2c2[nH]c(CNCC3CCN(c4nccc5ccc(F)cc45)C3)cc12 (single isomer, unassigned) [Compound 181, 2-[({[1-(7-fluoroisoquinolin-1-yl)pyrrolidin-3-yl]methyl}amino)methyl][1]benzopyrano[4,3-b]pyrrol-4(1H)-one] | 440 nM | 3670 nM | 360 nM | 730 nM | – | 91% | – | – | 53% | 50% | 92% | – | – | –
O=c1oc2ccccc2c2[nH]c(CNCC3CN(c4nccc5ccc(F)cc45)CCO3)cc12 (single isomer, unassigned) [Compound 182, 2-[({[4-(7-fluoroisoquinolin-1-yl)morpholin-2-yl]methyl}amino)methyl][1]benzopyrano[4,3-b]pyrrol-4(1H)-one] | 740 nM | 3210 nM | 740 nM | 640 nM | 61% | 52% | – | 92% | – | 50a % | – | – | – | –
O=c1oc2ccccc2c2[nH]c(CNCC3CN(c4nccc5ccc(F)cc45)CCO3)cc12 (single isomer, unassigned) [Compound 183, 2-[({[4-(7-fluoroisoquinolin-1-yl)morpholin-2-yl]methyl}amino)methyl][1]benzopyrano[4,3-b]pyrrol-4(1H)-one] | 770 nM | 2480 nM | 190 nM | 740 nM | – | 77% | – | – | 81% | 85% | 84% | – | – | –
O=c1nc(NCC(O)CN2CCN(c3nccc4ccncc34)CC2)c2cc(F)ccc2o1 (centres unmarked) [Compound 157, 6-fluoro-4-({2-hydroxy-3-[4-(2,7-naphthyridin-1-yl)piperazin-1-yl]propyl}amino)-2H-1,3-benzoxazin-2-one] | 2340 nM | 640 nM | – | 2480 nM | 83% | – | – | 89% | – | – | – | 100% | 1020 nM | 100%
Fc1ccc2ccnc(N3CCC(NCc4c[nH]c(-c5ccccn5)n4)CC3)c2c1 [Compound 160, 1-(7-fluoroisoquinolin-1-yl)-N-{[2-(pyridin-2-yl)-1H-imidazol-4-yl]methyl}piperidin-4-amine] | – | 21500 nM | – | 20800 nM | 50% | – | – | 65% | – | – | – | 60% | – | –
O=c1nc(NCC(O)CN2CCN(c3nccc4cc[n+]([O-])cc34)CC2)c2cc(F)ccc2o1 (centres unmarked) [Compound 164, 8-(4-(3-((6-fluoro-2-oxo-2H-benzo[e][1,3]oxazin-4-yl)amino)-2-hydroxypropyl)piperazin-1-yl)-2,7-naphthyridine 2-oxide] | 3770 nM | 1780 nM | 700 nM | 1460 nM | 100% | – | – | 100% | – | – | – | 100% | – | 100%
O=C1COc2ncc(F)cc2N1[C@H]1CC[C@H](NCc2cc3c(=O)oc4ccc(F)cc4c3[nH]2)CC1 [Compound 193, 8-fluoro-2-({[trans-4-(7-fluoro-2-oxo-2,3-dihydro-1H-pyrido[2,3-b][1,4]oxazin-1-yl)cyclohexyl]amino}methyl)[1]benzopyrano[4,3-b]pyrrol-4(1H)-one] | 250 nM | 1380 nM | 2250 nM | 280 nM | 77% | – | – | 86% | – | – | – | 50% | – | 74%
COc1ccc2ncc(=O)n(C3CCN(CCc4cc5c(=O)oc6ccc(F)cc6c5[nH]4)CC3)c2n1 [Compound 197, 8-fluoro-2-{2-[4-(6-methoxy-3-oxopyrido[2,3-b]pyrazin-4(3H)-yl)piperidin-1-yl]ethyl}[1]benzopyrano[4,3-b]pyrrol-4(1H)-one] | – | – | – | – | 87% | – | – | 90% | – | – | – | 63% | – | 79%
COc1cnc2ccc(=O)n(C3CCN(CCc4cc5c(=O)oc6ccc(F)cc6c5[nH]4)CC3)c2n1 [Compound 200] | 40 nM | < 100 nM | < 100 nM | < 100 nM | 90% | – | – | 100% | – | – | – | 100% | – | 100%
COc1ccc2ncc(=O)n([C@H]3CC[C@H](NCc4cc5c(=O)oc6ccc(F)cc6c5[nH]4)CC3)c2n1 [Compound 201, 8-fluoro-2-({[trans-4-(6-methoxy-3-oxopyrido[2,3-b]pyrazin-4(3H)-yl)cyclohexyl]amino}methyl)[1]benzopyrano[4,3-b]pyrrol-4(1H)-one] | < 100 nM | < 100 nM | < 100 nM | 190 nM | 100% | – | – | 100% | – | – | – | 100% | – | 100%
COc1ccc2ccc(=O)n(C3CCN(CCc4cc5c(=O)oc6ccc(F)cc6c5[nH]4)CC3)c2n1 [Compound 202, 8-fluoro-2-{2-[4-(7-methoxy-2-oxo-1,8-naphthyridin-1(2H)-yl)piperidin-1-yl]ethyl}[1]benzopyrano[4,3-b]pyrrol-4(1H)-one] | – | – | – | – | 100% | – | – | 100% | – | – | – | 100% | – | 100%
COc1cnc2ccc(=O)n([C@H]3CC[C@H](NCc4cc5c(=O)oc6ccc(F)cc6c5[nH]4)CC3)c2c1 [Compound 204, 8-fluoro-2-({[trans-4-(7-methoxy-2-oxo-1,5-naphthyridin-1(2H)-yl)cyclohexyl]amino}methyl)[1]benzopyrano[4,3-b]pyrrol-4(1H)-one] | 50 nM | < 100 nM | < 100 nM | 640 nM | 100% | – | 100% | 100% | – | – | – | 100% | – | –
COc1cnc2ccc(=O)n([C@H]3CC[C@@H](NCc4cc5c(=O)oc6ccc(F)cc6c5[nH]4)CC3)c2c1 [Compound 205, 8-fluoro-2-({[cis-4-(7-methoxy-2-oxo-1,5-naphthyridin-1(2H)-yl)cyclohexyl]amino}methyl)[1]benzopyrano[4,3-b]pyrrol-4(1H)-one] | 100 nM | 310 nM | 100 nM | 170 nM | 100% | – | 100% | 100% | – | – | – | 100% | – | –
N#Cc1ccc2ccc(=O)n([C@H]3CC[C@H](NCc4cc5c(=O)oc6ccc(F)cc6c5[nH]4)CC3)c2c1 [Compound 206, 1-(trans-4-{[(8-fluoro-4-oxo-1,4-dihydro[1]benzopyrano[4,3-b]pyrrol-2-yl)methyl]amino}cyclohexyl)-2-oxo-1,2-dihydroquinoline-7-carbonitrile] | 50 nM | < 100 nM | < 100 nM | 130 nM | 100% | – | 100% | 100% | – | – | – | 100% | – | –
O=c1oc2ccc(F)cc2c2[nH]c(CN[C@H]3CC[C@H](n4c(=O)ccc5ncc(F)cc54)CC3)cc12 [Compound 207, 8-fluoro-2-({[trans-4-(7-fluoro-2-oxo-1,5-naphthyridin-1(2H)-yl)cyclohexyl]amino}methyl)[1]benzopyrano[4,3-b]pyrrol-4(1H)-one] | < 100 nM | < 100 nM | < 100 nM | < 100 nM | 100% | – | 100% | 100% | – | – | – | 100% | – | –
COc1ccc2ncc(=O)n([C@H]3CC[C@H](NCc4cc5c(=O)oc6ccc(F)cc6c5[nH]4)CC3)c2c1 [Compound 208, 8-fluoro-2-({[trans-4-(7-methoxy-2-oxoquinoxalin-1(2H)-yl)cyclohexyl]amino}methyl)[1]benzopyrano[4,3-b]pyrrol-4(1H)-one] | 80 nM | 270 nM | 130 nM | 110 nM | 100% | – | 100% | 100% | – | – | – | 100% | – | –
N#Cc1cnc2c(c1)N([C@H]1CC[C@@H](NCc3cc4c(=O)oc5ccc(F)cc5c4[nH]3)CC1)C(=O)CO2 [Compound 215, 1-(cis-4-{[(8-fluoro-4-oxo-1,4-dihydro[1]benzopyrano[4,3-b]pyrrol-2-yl)methyl]amino}cyclohexyl)-2-oxo-2,3-dihydro-1H-pyrido[2,3-b][1,4]oxazine-7-carbonitrile] | – | – | – | – | 69% | – | – | 96% | – | – | – | – | – | –
